The source of these data is ChEMBL document CHEMBL2034929, “A specific molecular beacon probe for the detection of human prostate cancer cells” (Bioorg Med Chem Lett, 2012).

The subject of data set [1] is LNCaP. Put plainly: Drug metabolism in human LNCAP cell lysates at 10 uM after 26 hrs by fluorescence analysis relative to untreated human RWPE1 cells. The class given is ADME, cell-based, Lysate.
Data set [2] relates to LNCaP. Description: Drug metabolism in human LNCAP cells at 10 uM after 30 mins by fluorescence microscopy. The class given is ADME, cell-based. As to conditions: 0.5 h; call rule not given here.
The nature of data set [3]: Drug metabolism in human RWPE1 cells at 10 uM after 30 mins by fluorescence microscopy. In kind it is ADME, cell-based. The conditions noted are these: rwpe-1, 0.5 h.
Data set [4] concerns LNCaP. Description: Drug metabolism in human LNCAP cell lysates at 10 uM after 10 days by fluorescence analysis. The class given is ADME, cell-based, Lysate. The conditions noted are these: 240 h.
Data set [5] is described as follows: Drug metabolism in 0.10 M tris-maleate buffer at pH 8 assessed as increase in fluorescence at 10 uM after 5 hrs by UV-VIS spectrophotometry in presence of porcine liver carboxylesterase relative to control. In kind it is physicochemical. The conditions noted are these: pig, pH 8, 5 h.
Data set [6] in a line: Drug metabolism in human LNCAP cells at 10 uM after 26 hrs by UV-VIS spectrophotometry. The class given is ADME, cell-based. As to conditions: read-out: Drug metabolism.
Data set [7] is described as follows: Drug metabolism in human RWPE1 cells at 10 uM after 26 hrs by UV-VIS spectrophotometry. The class given is ADME, cell-based, RWPE-1. The conditions noted are these: read-out: Drug metabolism.
Data set [8] relates to LNCaP. Description: Drug metabolism in human LNCAP cell lysates at 10 uM after 26 hrs by UV-VIS spectrophotometry relative to human RWPE1 cells. The class given is ADME, cell-based, Lysate.
The subject of data set [9] is LNCaP. Put plainly: Drug metabolism in human LNCAP cell lysates at 10 uM after 26 hrs by fluorescence analysis relative to human RWPE1 cells. In kind it is ADME, cell-based, Lysate.
The test system of data set [10] is LNCaP. Put plainly: Drug metabolism in human LNCAP cell lysates assessed as formation of 2-[3-[[(3'6'-Dihydroxy-3-oxospiro[isobenzofuran-1(3H), 9'-[9H]xanthen]-6-yl)carbonyl]amino]-1-propyn-1-yl]-benzenemethanol. The class given is ADME, cell-based, Lysate.
Data set [11] in a line: Drug metabolism in 0.10 M tris-maleate buffer at pH 8 assessed as formation of N-[4-[(1E)-2-[4-(dimethylamino)phenyl]diazenyl]benzoyl]-glycine by mass spectrometry in presence of porcine liver carboxylesterase. In kind it is physicochemical. As to conditions: pig.
Data set [12] can be described thus: Drug metabolism in 0.10 M tris-maleate buffer at pH 8 assessed as formation of 2-[3-[[(3'6'-Dihydroxy-3-oxospiro[isobenzofuran-1(3H), 9'-[9H]xanthen]-6-yl)carbonyl]amino]-1-propyn-1-yl]-benzenemethanol by mass spectrometry in presence of porcine liver carboxylesterase. The class given is physicochemical. As to conditions: pig.
Data set [13] has as its system LNCaP. Description: Drug metabolism in human LNCAP cell lysates assessed as formation of N-[4-[(1E)-2-[4-(dimethylamino)phenyl]diazenyl]benzoyl]-glycine. In kind it is ADME, cell-based, Lysate.

Turning to `CN(C)c1ccc(/N=N/c2ccc(C(=O)NCC(=O)OCc3ccccc3C#CCNC(=O)c3ccc4c(c3)C3(OC4=O)c4ccc(O)cc4Oc4cc(O)ccc43)cc2)cc1`, the “fold change (FC)” value in [1] was determined as 30.8; in data set [5], 23; in data set [8], 2.9; in [9] it was 3.8. The Drug metabolism entry in data set [2] is reported as “Active”; in [3], “Not Active”; in data set [4] it was “Active”; in data set [10] it was “Active”; in data set [11], “Active”; in data set [12], “Active”. For the same compound, the Drug metabolism result in data set [13] is “Active”. For the same compound, the metabolised at 26 h, 10 µM in [6] came out at 29%; in data set [7], 10%.
